Laboratory results taken from patent US11827627B2, “N-(hydroxyalkyl (hetero)aryl) tetrahydrofuran carboxamides as modulators of sodium channels” (VERTEX PHARMACEUTICALS INCORPORATED, priority 2021, dated 2023).

target: human NaV 1.8 (Homo sapiens, UniProt Q9Y5Y9); assay: E-VIPR assay detecting and measuring NaV inhibition properties; type: cell-based; conditions: HEK cells expressing a truncated form of human NaV 1.8; electrical stimulation, membrane potential FRET dyes
Method in brief: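 HEK cells expressing truncated full-activity NaV 1.8, co-transduced with KIR2.1 BacMam, seeded 16-20 h before assay. Electrical stimulation with FRET membrane-potential dyes (CC2-DMPE/DiSBAC6(3)) in HEPES-buffered bath solutions; 25% human serum final.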

Sequence of human NaV 1.8 (Q9Y5Y9 126-1722 limits assumed): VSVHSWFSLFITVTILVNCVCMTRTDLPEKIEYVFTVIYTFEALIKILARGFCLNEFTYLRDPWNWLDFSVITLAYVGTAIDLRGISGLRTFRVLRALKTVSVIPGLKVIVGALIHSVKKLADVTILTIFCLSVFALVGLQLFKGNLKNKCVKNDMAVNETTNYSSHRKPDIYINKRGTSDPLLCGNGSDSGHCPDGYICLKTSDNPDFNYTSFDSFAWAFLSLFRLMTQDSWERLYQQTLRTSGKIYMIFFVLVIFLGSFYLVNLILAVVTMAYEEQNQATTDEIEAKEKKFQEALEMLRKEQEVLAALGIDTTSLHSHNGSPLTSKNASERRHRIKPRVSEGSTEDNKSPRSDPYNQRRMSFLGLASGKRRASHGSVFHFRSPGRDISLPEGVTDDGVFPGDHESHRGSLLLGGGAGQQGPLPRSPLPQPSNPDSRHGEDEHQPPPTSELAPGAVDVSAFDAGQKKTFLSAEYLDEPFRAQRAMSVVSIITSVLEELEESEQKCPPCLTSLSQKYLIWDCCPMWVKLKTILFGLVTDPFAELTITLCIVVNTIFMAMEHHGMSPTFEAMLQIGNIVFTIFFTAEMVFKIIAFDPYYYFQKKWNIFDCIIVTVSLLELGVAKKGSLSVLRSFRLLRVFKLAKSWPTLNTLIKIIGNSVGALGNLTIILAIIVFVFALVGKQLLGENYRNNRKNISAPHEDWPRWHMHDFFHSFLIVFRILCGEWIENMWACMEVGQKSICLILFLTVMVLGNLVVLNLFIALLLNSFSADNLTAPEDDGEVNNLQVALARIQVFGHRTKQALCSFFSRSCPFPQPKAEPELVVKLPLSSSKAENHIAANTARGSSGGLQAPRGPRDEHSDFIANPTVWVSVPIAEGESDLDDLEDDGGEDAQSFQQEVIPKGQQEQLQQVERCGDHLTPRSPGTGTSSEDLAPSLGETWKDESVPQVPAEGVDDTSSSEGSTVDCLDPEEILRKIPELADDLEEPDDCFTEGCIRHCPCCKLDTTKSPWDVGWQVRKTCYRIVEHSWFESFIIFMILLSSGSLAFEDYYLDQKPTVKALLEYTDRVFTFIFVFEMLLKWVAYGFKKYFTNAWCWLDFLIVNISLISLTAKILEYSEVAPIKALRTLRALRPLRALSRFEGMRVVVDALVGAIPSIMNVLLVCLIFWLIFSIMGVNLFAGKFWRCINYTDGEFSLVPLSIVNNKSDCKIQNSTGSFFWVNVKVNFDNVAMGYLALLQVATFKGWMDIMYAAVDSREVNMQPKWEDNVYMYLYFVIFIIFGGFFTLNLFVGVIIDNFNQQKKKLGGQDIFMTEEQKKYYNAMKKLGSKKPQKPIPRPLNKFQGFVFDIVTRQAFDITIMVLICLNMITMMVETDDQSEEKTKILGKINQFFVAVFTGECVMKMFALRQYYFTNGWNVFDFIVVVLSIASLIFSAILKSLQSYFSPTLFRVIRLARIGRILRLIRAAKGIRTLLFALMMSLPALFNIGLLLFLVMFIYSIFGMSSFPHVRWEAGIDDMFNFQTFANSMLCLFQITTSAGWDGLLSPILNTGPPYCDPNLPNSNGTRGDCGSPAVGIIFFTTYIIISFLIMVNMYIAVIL

SMILES	IC50
COc1nc(C(F)F)ccc1[C@H]1[C@H](C(=O)Nc2ccc(CO)nc2)O[C@@](C)(C(F)(F)F)[C@H]1C (stereo in doubt) [Compound 88, rel-(2R,3S,4S,5R)-3-(6-(difluoromethyl)-2-methoxypyridin-3-yl)-N-(6-(hydroxymethyl)pyridin-3-yl)-4,5-dimethyl-5-(trifluoromethyl)tetrahydrofuran-2-carboxamide]	100 to 1000 nM
COc1nc(C(F)F)ccc1[C@@H]1[C@@H](C(=O)Nc2ccc(CO)nc2)O[C@](C)(C(F)(F)F)[C@@H]1C (stereo in doubt) [Compound 89, rel-(2S,3R,4R,5S)-3-(6-(difluoromethyl)-2-methoxypyridin-3-yl)-N-(6-(hydroxymethyl)pyridin-3-yl)-4,5-dimethyl-5-(trifluoromethyl)tetrahydrofuran-2-carboxamide]	≥ 1000 nM
CCOc1c([C@H]2[C@H](C(=O)Nc3ccc([C@H](O)CO)nc3)O[C@@](C)(C(F)(F)F)[C@H]2C)ccc(F)c1F [Compound 6, (2R,3S,4S,5R)-N-(6-((S)-1,2-dihydroxyethyl)pyridin-3-yl)-3-(2-ethoxy-3,4-difluorophenyl)-4,5-dimethyl-5-(trifluoromethyl)tetrahydrofuran-2-carboxamide]	< 10 nM
CCOc1c([C@H]2[C@H](C(=O)Nc3ccc([C@@H](O)CO)nc3)O[C@@](C)(C(F)(F)F)[C@H]2C)ccc(F)c1F [Compound 7, (2R,3S,4S,5R)-N-(6-((R)-1,2-dihydroxyethyl)pyridin-3-yl)-3-(2-ethoxy-3,4-difluorophenyl)-4,5-dimethyl-5-(trifluoromethyl)tetrahydrofuran-2-carboxamide]	< 10 nM
[2H]C([2H])([2H])Oc1c([C@H]2[C@H](C(=O)Nc3ccc([C@@H](O)CO)nc3)O[C@@](C)(C(F)(F)F)[C@H]2C)ccc(F)c1F [Compound 8, (2R,3S,4S,5R)-3-(3,4-difluoro-2-(methoxy-d3)phenyl)-N-(6-((R)-1,2-dihydroxyethyl)pyridin-3-yl)-4,5-dimethyl-5-(trifluoromethyl)tetrahydrofuran-2-carboxamide]	< 10 nM
CC(C)Oc1c(C2C(C(=O)Nc3cnc(C(O)CO)nc3)OC(C)(C(F)(F)F)C2C)ccc(F)c1F (stereo not shown) [Compound 9]	10 to 100 nM
COc1c([C@H]2[C@H](C(=O)Nc3ccc(CO)nc3)O[C@@](C)(C(F)(F)F)[C@H]2C)ccc(F)c1F [Compound 14, (2R,3S,4S,5R)-3-(3,4-difluoro-2-methoxyphenyl)-N-(6-(hydroxymethyl)pyridin-3-yl)-4,5-dimethyl-5-(trifluoromethyl)tetrahydrofuran-2-carboxamide]	< 10 nM
COc1c([C@H]2[C@H](C(=O)Nc3cnc(CO)nc3)O[C@@](C)(C(F)(F)F)[C@H]2C)ccc(F)c1F [Compound 15, (2R,3S,4S,5R)-3-(3,4-difluoro-2-methoxyphenyl)-N-(2-(hydroxymethyl)pyrimidin-5-yl)-4,5-dimethyl-5-(trifluoromethyl)tetrahydrofuran-2-carboxamide]	< 10 nM
COc1c([C@H]2[C@H](C(=O)Nc3ccc(CO)nc3)O[C@@](C)(C(F)(F)F)[C@H]2C)ccc(OC(F)F)c1F [Compound 18, (2R,3S,4S,5R)-3-(4-(difluoromethoxy)-3-fluoro-2-methoxyphenyl)-N-(6-(hydroxymethyl)pyridin-3-yl)-4,5-dimethyl-5-(trifluoromethyl)tetrahydrofuran-2-carboxamide]	10 to 100 nM
COc1c([C@H]2[C@H](C(=O)Nc3cnc(CO)nc3)O[C@@](C)(C(F)(F)F)[C@H]2C)ccc(OC(F)F)c1F [Compound 19, (2R,3S,4S,5R)-3-(4-(difluoromethoxy)-3-fluoro-2-methoxyphenyl)-N-(2-(hydroxymethyl)pyrimidin-5-yl)-4,5-dimethyl-5-(trifluoromethyl)tetrahydrofuran-2-carboxamide]	10 to 100 nM
